Measurements published in patent publication US20240285541A1, “SHELF STABLE ORGANIC NUCLEOTIDE COMPOSITIONS AND METHODS OF MANUFACTURING THE SAME” (Glanbia Nutritionals, Inc., priority 2023, published 2024).

Test: ATP stability over 362 days, processed under acidic and hot-fill conditions
Type: physicochemical
Conditions: acidic conditions (pH 2.8; b60 also says pH 2.5), hot-fill conditions
Text: FIG. 5 is a graphical representation 500 of the unexpectedly good results achieved through the method and composition described in connection with FIG. 4. Specifically, the graphical representation 500 illustrates a comparison of ATP stability for a composition or product of the disclosure (specifically, Formula A prepared according to method 400) compared against a control ATP product processed under acidic conditions (pH 2.5) and hot-fill conditions. The ATP stability measurements were calculated over three hundred sixty-two (362 days). For the control ATP, pH 2.8 (Δ), y=116.03e^−0.012x, R^2=0.966. For the encapsulated ATP Formula A, pH 2.8 (Δ), y=100.37e^−0.003x, R^2=0.9591.
Specifically, Formula A continued to comprise about 33.43 wt % of ATP 100, 200 at the end of the 362 days, compared with the 1.44 wt % of ATP 100, 200 in the control ATP solution.
FIG. 7 is a graphical representation 700 of the unexpectedly good results achieved through the method and composition described in connection with FIG. 6. Specifically, the graphical representation 700 illustrates a comparison of ATP stability for a composition or product of the disclosure (specifically, Formula B prepared according to method 600) compared against a control ATP product processed under acidic conditions (pH 2.8) and hot-fill conditions. ATP stability measurements were calculated over three hundred sixty-two (362) days. […]

Nc1ncnc2c1ncn2[C@@H]1O[C@H](COP(=O)(O)OP(=O)([O-])OP(=O)([O-])O)[C@@H](O)[C@H]1O.[Na+].[Na+] [control ATP, adenosine triphosphate (ATP) disodium salt]
ATP 100, 200 comprised at the end of the 362 days: 1.44 wt %
